From patent publication US20250195510A1, “NOVEL METHODS” (priority 2022, published 2025)

How the values were obtained:
[1] = system: Serum cytokine concentration; experiment: Serum cytokine protein (Multiplex MSD V-Plex) after LPS and lumateperone; assay type: in vivo, mouse
Procedure: All other reagents are obtained in the highest purity available from Sigma-Aldrich (St. Louis, MO) unless otherwise noted. […] Sigma-Aldrich, ref #0127: B8) diluted in 0.9% injectable saline while control group animals receive injections of all vehicles matching the experimental conditions. […] Tissue Collection. […] Rats are euthanized 18 hours after LPS injection for sample collection. Hippocampi from mice and rats are rapidly dissected under RNAse-free conditions and placed in 1.5 mL Eppendorf tubes. When appropriate, samples are snap frozen in liquid nitrogen prior to storage at −80° C. until further analysis. […] Multiplex Assays. […] All samples are run in duplicates or triplicates according to manufacturer instructions and analyzed with MSD Discovery Workbench software (Meso Scale Diagnostics). […] An additional experimental group receiving an injection with lumateperone alone is included as an additional control. Protein concentration is measured using the Multiplex MSD assay V-Plex technology. Results are expressed in pg/mL, except for IL-6, which is measured in ng/mL.

[2] = system: hippocampal gene expression (NanoString gene sets); experiment: NanoString nCounter hippocampal gene expression after coinjection of LPS and lumateperone; assay type: in vivo, mouse
Description: NanoString. The mouse neuropathology panel includes 770 genes associated with themes of neurotransmission, neuron-glia interaction, neuroplasticity, cell structure integrity, neuroinflammation and metabolism. A total of 13 housekeeping genes are used for expression normalization (Aars: NM_146217.4, Asb10: NM_080444.4, Ccdc127: NM_024201.3, Cnot10: NM_153585.5, Csnk2a2: NM_009974.3, Fam104a: NM_138598.5, Gusb: NM_010368.1, Lars: NM_134137.2, Mtol: NM_026658.2, Supt7l: NM_028150.1, Tada2b: NM_001170454.1:3224, Tbp: NM_013684.3:70, and Xpnpepl: NM_133216.3:1826, see FIG. 1-1). Hippocampal RNA is extracted using the Qiagen microkit (Qiagen) and is evaluated by the Agilent 2100 Bioanalyzer (Agilent Technologies, Santa Clara, CA) to assess RNA concentration, quality, and integrity. Sample preparation, hybridization, and detection (100 ng per sample, n=5-6 per group) are carried out according to NanoString manufacturer's instructions (NanoString Technologies, Seattle, WA). The normalized data are transformed to log 2 score to express the fold change. NanoString results (raw and normalized counts) are derived from RCC files using the nSolver software (version 2.6; NanoString Technologies). A complementary gene software analysis tool, ROSALIND® Advanced Analysis Software (NanoString Technologies), is also used, which provides comprehensive free cloud-based data analysis for nCounter data by directly analyzing raw RCC files generated from NanoString. Data are imported into ROSALIND® Advanced Analysis Software for normalization, calculation of fold-changes, P values, identification of enriched pathways, and heatmaps.
The NanoString platform has been effectively used to quantitatively measure in vivo gene expression of target genes in several neuropathological mouse models.
It is calculated similarly to a unidirected global significance score, but it takes into account the sign of the t-statistic. Scores were calculated by nSolver software, using the control group as a reference.
Next, using ROSALIND® Advanced Analysis Software and a filter set to P<.

[3] = Inflammation gene, LPS 500 μg/kg + Luma 3 mg/kg, 2 h
[4] = Microglia gene, LPS 500 μg/kg + Luma 3 mg/kg, 2 h
[5] = Neuroprotect gene, LPS 500 μg/kg + Luma 3 mg/kg, 2 h

CN1CCN2c3c(cccc31)[C@@H]1CN(CCCC(=O)c3ccc(F)cc3)CC[C@@H]12 [Lumateperone, 4-((6bR,10aS)-3-methyl-2,3,6b,9,10,10a-hexahydro-1H-pyrido[3′,4′: 4,5]pyrrolo[1,2,3-de]quinoxaline-8 (7H)-yl)-1-(4-fluorophenyl)-1-butanone]
Serum IL-1b concentration ([1]; LPS 500 μg/kg + Luma 3 mg/kg, LPS alone 6.27): 2.69 pg/mL
Serum IL-6 concentration ([1]; LPS 500 μg/kg + Luma 3 mg/kg, LPS alone 14.52): 1.49 ng/mL
Serum TNF-alpha concentration ([1]; LPS 500 μg/kg + Luma 3 mg/kg, LPS alone 335.3): 56.33 pg/mL
Serum IL-10 concentration ([1]; LPS 500 μg/kg + Luma 3 mg/kg, LPS alone 980.4): 1014.3 pg/mL
Serum IL-6 concentration ([1]; Luma 3 mg/kg alone, no LPS, saline only 0.51): 0.09 ng/mL
Serum IL-1b concentration ([1]; Luma 3 mg/kg alone, no LPS, saline only 1.32): 1.47 pg/mL
Serum TNF-alpha concentration ([1]; Luma 3 mg/kg alone, no LPS, saline only 14.08): 9.38 pg/mL
Serum IL-10 concentration ([1]; Luma 3 mg/kg alone, no LPS, saline only 24.80): 48.93 pg/mL
Casp4 hippocampal expression, Log2, LPS + Luma vs LPS [2, 3]: −2.24
Ccr2 hippocampal expression, Log2, LPS + Luma vs LPS [2, 3]: −1.71
Ikbkb hippocampal expression, Log2, LPS + Luma vs LPS [2, 3]: −0.132
Il1b hippocampal expression, Log2, LPS + Luma vs LPS [2, 3]: −1.42
Il1r1 hippocampal expression, Log2, LPS + Luma vs LPS [2, 3]: −0.309
Lrg1 hippocampal expression, Log2, LPS + Luma vs LPS [2, 3]: −1.67
Ly6a hippocampal expression, Log2, LPS + Luma vs LPS [2, 3]: −0.925
Myd88 hippocampal expression, Log2, LPS + Luma vs LPS [2, 3]: −0.433
Nfkb2 hippocampal expression, Log2, LPS + Luma vs LPS [2, 3]: −0.972
Osmr hippocampal expression, Log2, LPS + Luma vs LPS [2, 3]: −1.21
Socs3 hippocampal expression, Log2, LPS + Luma vs LPS [2, 3]: −1.57
Tnfrsf1a hippocampal expression, Log2, LPS + Luma vs LPS [2, 3]: −0.434
Tnfrsf1b hippocampal expression, Log2, LPS + Luma vs LPS [2, 3]: −0.31
Directed global significance score vs control group, gene set Oligodendrocyte function ([2]; LPS 500 μg/kg + Luma 3 mg/kg coinjected, 2 h, LPS alone 0.181): 0.48
Directed global significance score vs control group, gene set Insulin signaling ([2]; LPS 500 μg/kg + Luma 3 mg/kg coinjected, 2 h, LPS alone 0.28): 0.809
Directed global significance score vs control group, gene set Epigenetic regulation ([2]; LPS 500 μg/kg + Luma 3 mg/kg coinjected, 2 h, LPS alone 0.312): 0.892
Directed global significance score vs control group, gene set Microglia function ([2]; LPS 500 μg/kg + Luma 3 mg/kg coinjected, 2 h, LPS alone 0.377): 0.915
Directed global significance score vs control group, gene set Cellular stress ([2]; LPS 500 μg/kg + Luma 3 mg/kg coinjected, 2 h, LPS alone 0.499): 0.813
Directed global significance score vs control group, gene set Carbohydrate metabolism ([2]; LPS 500 μg/kg + Luma 3 mg/kg coinjected, 2 h, LPS alone 0.507): 0.668
Directed global significance score vs control group, gene set Adaptive immune response ([2]; LPS 500 μg/kg + Luma 3 mg/kg coinjected, 2 h, LPS alone 0.571): 0.938
Directed global significance score vs control group, gene set DNA damage ([2]; LPS 500 μg/kg + Luma 3 mg/kg coinjected, 2 h, LPS alone 0.578): 0.042
Directed global significance score vs control group, gene set Autophagy ([2]; LPS 500 μg/kg + Luma 3 mg/kg coinjected, 2 h, LPS alone 0.588): 0.548
Directed global significance score vs control group, gene set Growth factor signaling ([2]; LPS 500 μg/kg + Luma 3 mg/kg coinjected, 2 h, LPS alone 0.76): 0.698
Directed global significance score vs control group, gene set Notch ([2]; LPS 500 μg/kg + Luma 3 mg/kg coinjected, 2 h, LPS alone 0.876): 1.05
Directed global significance score vs control group, gene set Apoptosis ([2]; LPS 500 μg/kg + Luma 3 mg/kg coinjected, 2 h, LPS alone 0.915): −0.453
Directed global significance score vs control group, gene set Innate immune response ([2]; LPS 500 μg/kg + Luma 3 mg/kg coinjected, 2 h, LPS alone 0.939): −0.655
Directed global significance score vs control group, gene set Cytokine signaling ([2]; LPS 500 μg/kg + Luma 3 mg/kg coinjected, 2 h, LPS alone 0.993): −0.599
Directed global significance score vs control group, gene set Inflammatory signaling ([2]; LPS 500 μg/kg + Luma 3 mg/kg coinjected, 2 h, LPS alone 1.086): −0.93
Directed global significance score vs control group, gene set NF-kB ([2]; LPS 500 μg/kg + Luma 3 mg/kg coinjected, 2 h, LPS alone 1.215): −0.689
Directed global significance score vs control group, gene set Astrocyte function ([2]; LPS 500 μg/kg + Luma 3 mg/kg coinjected, 2 h, LPS alone 1.391): −0.308
Directed global significance score vs control group, gene set Angiogenesis ([2]; LPS 500 μg/kg + Luma 3 mg/kg coinjected, 2 h, LPS alone −0.144): 0.891
Directed global significance score vs control group, gene set Cell cycle ([2]; LPS 500 μg/kg + Luma 3 mg/kg coinjected, 2 h, LPS alone −0.148): 0.385
Directed global significance score vs control group, gene set Lipid metabolism ([2]; LPS 500 μg/kg + Luma 3 mg/kg coinjected, 2 h, LPS alone −0.192): 0.89
Directed global significance score vs control group, gene set Neurons and neurotransmission ([2]; LPS 500 μg/kg + Luma 3 mg/kg coinjected, 2 h, LPS alone −0.422): 0.979
Directed global significance score vs control group, gene set Wnt ([2]; LPS 500 μg/kg + Luma 3 mg/kg coinjected, 2 h, LPS alone −0.476): 1.186
Directed global significance score vs control group, gene set Matrix remodeling ([2]; LPS 500 μg/kg + Luma 3 mg/kg coinjected, 2 h, LPS alone −0.583): 0.447
genes that promote inflammation (e.g., Osmr, Tnfrsf1a, Tnfrsf11b, Prl, Il1r1), ROSALIND analysis ([2]; LPS+Luma versus LPS alone, filter P<.04999): significantly downregulates
Directed global significance score vs control group, gene set Adaptive immune response ([2]; Luma alone): 0.344
Directed global significance score vs control group, gene set Angiogenesis ([2]; Luma alone): 0.616
Directed global significance score vs control group, gene set Apoptosis ([2]; Luma alone): −0.442
Directed global significance score vs control group, gene set Astrocyte function ([2]; Luma alone): −0.837
Directed global significance score vs control group, gene set Autophagy ([2]; Luma alone): −0.731
Directed global significance score vs control group, gene set Carbohydrate metabolism ([2]; Luma alone): −0.837
Directed global significance score vs control group, gene set Cell cycle ([2]; Luma alone): −0.75
Directed global significance score vs control group, gene set Cellular stress ([2]; Luma alone): −0.432
Directed global significance score vs control group, gene set Cytokine signaling ([2]; Luma alone): −0.543
Directed global significance score vs control group, gene set DNA damage ([2]; Luma alone): −0.614
Directed global significance score vs control group, gene set Epigenetic regulation ([2]; Luma alone): 0.729
Directed global significance score vs control group, gene set Growth factor signaling ([2]; Luma alone): 0.226
Directed global significance score vs control group, gene set Inflammatory signaling ([2]; Luma alone): −1.032
Directed global significance score vs control group, gene set Innate immune response ([2]; Luma alone): −0.611
Directed global significance score vs control group, gene set Insulin signaling ([2]; Luma alone): 0.858
Directed global significance score vs control group, gene set Lipid metabolism ([2]; Luma alone): −0.818
Directed global significance score vs control group, gene set Matrix remodeling ([2]; Luma alone): −0.4
Directed global significance score vs control group, gene set Microglia function ([2]; Luma alone): 0.466
Directed global significance score vs control group, gene set NF-kB ([2]; Luma alone): −0.499
Directed global significance score vs control group, gene set Neurons and neurotransmission ([2]; Luma alone): 0.435
Directed global significance score vs control group, gene set Notch ([2]; Luma alone): 0.834
Directed global significance score vs control group, gene set Oligodendrocyte function ([2]; Luma alone): −1.176
Directed global significance score vs control group, gene set Wnt ([2]; Luma alone): 0.9
Cd36 hippocampal expression, Log2, LPS + Luma vs LPS [2, 4]: 0.332
Cx3cr1 hippocampal expression, Log2, LPS + Luma vs LPS [2, 4]: 0.231
Maff hippocampal expression, Log2, LPS + Luma vs LPS [2, 4]: 1.21
P2ry12 hippocampal expression, Log2, LPS + Luma vs LPS [2, 4]: 0.14
Ptgs2 hippocampal expression, Log2, LPS + Luma vs LPS [2, 4]: −0.358
Tmem100 hippocampal expression, Log2, LPS + Luma vs LPS [2, 4]: 0.186
Tmem144 hippocampal expression, Log2, LPS + Luma vs LPS [2, 4]: 0.227
Cldn5 hippocampal expression, Log2, LPS + Luma vs LPS [2, 5]: 0.812
Egr1 hippocampal expression, Log2, LPS + Luma vs LPS [2, 5]: 0.87
Fos hippocampal expression, Log2, LPS + Luma vs LPS [2, 5]: 2.27
Ngf hippocampal expression, Log2, LPS + Luma vs LPS [2, 5]: 0.126
Vegfa hippocampal expression, Log2, LPS + Luma vs LPS [2, 5]: 0.227
